In brackets after ≈: the same amount, converted by molar mass. Like-named read-outs stand apart in the source and are kept apart here.
System: B. cenocepacia K56-2
Experiment: Multistep resistance by serial passaging at 0.5× MIC
Assay type: cell-based, Burkholderia cenocepacia
Conditions: for MIC: Burkholderia cenocepacia; for change of MIC on serial passaging: 24 days of passaging at 0.5× MIC
[1] = K562, 0 h, day 0 of serial passaging, read-out: starting MIC in multistep resistance assay
[2] = K562, after 12–16 days of passaging at 0.5× MIC, read-out: MIC reached on serial passaging

| Compound | MIC [1] [µg/mL] | MIC [2] [µg/mL] | change of MIC on serial passaging |
| --- | --- | --- | --- |
| C[C@@H](O)[C@H]1C(=O)N2C(C(=O)O)=C(S[C@@H]3CN[C@H](C(=O)N(C)C)C3)[C@H](C)[C@H]12 [MEM, meropenem, reference compound] | 16 (≈ 41.7 µM) | 256 (≈ 668 µM) | – |
| CC(O)C[S][Au-][P+](C)(C)C (stereo not drawn) [MS-40S] | – | – | no apparent increase |
| C[PH](C)(C)[Au][S]CCO [MS-40, 2-mercaptoethanolatotrimethylphosphine gold(I)] | – | – | no apparent increase |
| C[C@H]1c2cccc(O)c2C(=O)C2=C(O)[C@]3(O)C(=O)C(C(N)=O)=C(O)[C@@H](N(C)C)[C@@H]3[C@@H](O)[C@@H]21 [DOX, doxycycline, reference compound] | 4 (≈ 9 µM) | 256 (≈ 576 µM) | – |

Source: PMC8697972, “New Auranofin Analogs with Antibacterial Properties against Burkholderia Clinical Isolates” (Antibiotics, 2021)
